Measurements: patent US20230312576A1, “4-(7H-PYRROLO[2,3-D]PYRIMIDIN-4-YL)-3,6-DIHYDROPYRIDINE-1-(2H)-CARBOXAMIDE DERIVATIVES AS LIMK AND/OR ROCK KINASES INHIBITORS FOR USE IN THE TREATMENT OF CANCER” (CENTRE NATIONAL DE LA RECHERCHE SCIENTIFIQUE, priority 2020, published 2023)
Read-outs that look alike come from different tables or passages of the source.

Assays:
LIMK1 = LIMK1 (Homo sapiens (Human), UniProt P53667); assay: Lanthascreen Eu binding assay (TR-FRET), inhibition of LIMK1
LIMK2 = LIMK2 (Homo sapiens (Human), UniProt P53671); assay: Lanthascreen Eu binding assay (TR-FRET), inhibition of LIMK2
LIMK2, sequence (P53671 whole entry): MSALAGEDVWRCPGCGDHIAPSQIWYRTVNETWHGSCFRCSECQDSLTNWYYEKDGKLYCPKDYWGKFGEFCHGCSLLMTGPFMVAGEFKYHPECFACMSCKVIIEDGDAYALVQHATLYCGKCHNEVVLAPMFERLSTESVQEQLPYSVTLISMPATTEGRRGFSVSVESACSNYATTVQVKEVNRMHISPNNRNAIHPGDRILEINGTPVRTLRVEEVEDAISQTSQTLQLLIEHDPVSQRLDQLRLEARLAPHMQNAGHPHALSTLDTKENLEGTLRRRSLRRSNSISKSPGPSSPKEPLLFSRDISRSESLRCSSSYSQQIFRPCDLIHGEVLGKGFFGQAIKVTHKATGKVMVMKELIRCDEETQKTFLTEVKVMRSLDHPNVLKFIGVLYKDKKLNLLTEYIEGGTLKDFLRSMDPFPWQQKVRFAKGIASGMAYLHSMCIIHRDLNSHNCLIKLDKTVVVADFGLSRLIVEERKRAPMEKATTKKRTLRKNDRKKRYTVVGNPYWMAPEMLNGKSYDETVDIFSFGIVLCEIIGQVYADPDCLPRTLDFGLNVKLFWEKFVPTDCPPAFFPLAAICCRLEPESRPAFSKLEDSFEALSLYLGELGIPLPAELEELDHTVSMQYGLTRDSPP

ROCK1 = ROCK1 (Homo sapiens (Human), UniProt Q13464); assay: Z'Lyte assay, ROCK1 inhibition at a single concentration; type: biochemical
ROCK1, sequence (Q13464 whole entry): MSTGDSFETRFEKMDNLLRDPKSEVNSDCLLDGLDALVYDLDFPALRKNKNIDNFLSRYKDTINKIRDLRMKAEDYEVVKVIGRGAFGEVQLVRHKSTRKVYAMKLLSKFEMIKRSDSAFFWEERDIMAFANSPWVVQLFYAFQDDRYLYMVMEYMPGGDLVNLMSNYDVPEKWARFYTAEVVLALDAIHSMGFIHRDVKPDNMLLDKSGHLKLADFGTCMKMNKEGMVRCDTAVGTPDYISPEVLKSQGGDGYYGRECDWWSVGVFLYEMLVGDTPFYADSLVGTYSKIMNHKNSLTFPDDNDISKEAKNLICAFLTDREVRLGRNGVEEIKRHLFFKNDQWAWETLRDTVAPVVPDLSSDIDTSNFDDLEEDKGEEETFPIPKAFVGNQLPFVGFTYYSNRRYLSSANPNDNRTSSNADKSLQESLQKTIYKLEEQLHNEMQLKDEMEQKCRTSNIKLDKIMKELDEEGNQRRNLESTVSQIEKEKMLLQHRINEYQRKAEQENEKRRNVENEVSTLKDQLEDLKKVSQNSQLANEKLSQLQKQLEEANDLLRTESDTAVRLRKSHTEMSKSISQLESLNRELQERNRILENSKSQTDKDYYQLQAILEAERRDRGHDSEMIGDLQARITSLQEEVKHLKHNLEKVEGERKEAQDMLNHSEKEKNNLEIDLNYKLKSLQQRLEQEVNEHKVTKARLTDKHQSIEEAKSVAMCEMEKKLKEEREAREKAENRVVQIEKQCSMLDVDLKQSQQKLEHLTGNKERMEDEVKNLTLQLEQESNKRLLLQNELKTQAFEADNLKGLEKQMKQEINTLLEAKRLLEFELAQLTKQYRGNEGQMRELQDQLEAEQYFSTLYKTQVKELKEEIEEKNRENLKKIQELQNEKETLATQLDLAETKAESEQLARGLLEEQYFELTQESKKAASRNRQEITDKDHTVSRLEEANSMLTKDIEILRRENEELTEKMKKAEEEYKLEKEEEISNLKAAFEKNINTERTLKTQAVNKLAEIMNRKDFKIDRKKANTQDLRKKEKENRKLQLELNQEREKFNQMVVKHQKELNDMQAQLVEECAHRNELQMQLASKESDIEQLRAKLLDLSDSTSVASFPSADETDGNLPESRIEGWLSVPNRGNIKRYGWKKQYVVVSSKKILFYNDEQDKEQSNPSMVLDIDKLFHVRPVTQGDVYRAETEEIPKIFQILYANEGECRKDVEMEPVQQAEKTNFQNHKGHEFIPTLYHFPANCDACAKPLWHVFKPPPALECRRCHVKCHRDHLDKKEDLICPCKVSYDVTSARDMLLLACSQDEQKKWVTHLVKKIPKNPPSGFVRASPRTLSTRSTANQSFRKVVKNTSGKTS

ROCK2 = ROCK2 (Homo sapiens (Human), UniProt O75116); assay: Z'Lyte assay, ROCK2 inhibition at a single concentration; type: biochemical
ROCK2, sequence (O75116 whole entry): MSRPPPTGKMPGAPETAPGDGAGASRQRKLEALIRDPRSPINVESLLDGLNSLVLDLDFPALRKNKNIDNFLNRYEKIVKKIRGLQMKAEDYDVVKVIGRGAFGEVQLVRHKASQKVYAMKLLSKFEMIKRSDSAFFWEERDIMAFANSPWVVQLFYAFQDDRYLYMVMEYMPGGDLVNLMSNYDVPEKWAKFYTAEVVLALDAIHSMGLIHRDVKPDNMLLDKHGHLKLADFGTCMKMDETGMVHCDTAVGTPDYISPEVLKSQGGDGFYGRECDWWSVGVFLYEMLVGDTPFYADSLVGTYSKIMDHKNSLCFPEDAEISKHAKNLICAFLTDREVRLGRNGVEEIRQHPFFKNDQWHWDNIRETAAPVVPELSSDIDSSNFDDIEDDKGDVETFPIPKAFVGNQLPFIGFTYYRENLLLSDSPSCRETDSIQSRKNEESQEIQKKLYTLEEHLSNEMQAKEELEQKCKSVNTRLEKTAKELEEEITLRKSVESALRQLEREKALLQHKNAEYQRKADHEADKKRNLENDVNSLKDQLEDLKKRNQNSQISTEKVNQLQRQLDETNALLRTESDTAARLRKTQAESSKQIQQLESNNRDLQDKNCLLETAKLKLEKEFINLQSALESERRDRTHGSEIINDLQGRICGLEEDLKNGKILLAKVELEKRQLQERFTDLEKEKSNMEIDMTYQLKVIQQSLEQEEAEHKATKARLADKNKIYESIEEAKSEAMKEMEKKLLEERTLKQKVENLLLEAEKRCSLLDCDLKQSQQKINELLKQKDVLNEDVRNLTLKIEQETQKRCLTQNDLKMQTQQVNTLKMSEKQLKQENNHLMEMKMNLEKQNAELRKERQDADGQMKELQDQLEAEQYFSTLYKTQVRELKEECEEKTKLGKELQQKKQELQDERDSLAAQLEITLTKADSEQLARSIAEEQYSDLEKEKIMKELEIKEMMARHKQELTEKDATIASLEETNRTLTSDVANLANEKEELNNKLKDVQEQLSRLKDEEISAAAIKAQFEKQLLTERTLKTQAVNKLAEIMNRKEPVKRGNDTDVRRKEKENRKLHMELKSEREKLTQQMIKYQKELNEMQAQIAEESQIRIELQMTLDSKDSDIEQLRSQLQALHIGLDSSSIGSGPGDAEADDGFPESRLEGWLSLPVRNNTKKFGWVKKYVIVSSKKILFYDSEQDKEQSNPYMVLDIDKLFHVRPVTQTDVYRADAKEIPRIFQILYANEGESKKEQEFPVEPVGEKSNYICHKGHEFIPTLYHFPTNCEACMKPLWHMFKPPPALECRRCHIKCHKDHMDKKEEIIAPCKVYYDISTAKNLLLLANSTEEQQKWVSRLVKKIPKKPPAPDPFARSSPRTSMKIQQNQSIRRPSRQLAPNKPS

[1] = read-out: % inhibition (ROCK1) 1 uM
[2] = read-out: % inhibition (ROCK2) 1 uM
[3] = read-out: % inhibition (ROCK1) 1 uM, 1 uM
[4] = read-out: % inhibition (ROCK2) 1 uM, 1 uM

LIMK1, sequence (P53667 whole entry): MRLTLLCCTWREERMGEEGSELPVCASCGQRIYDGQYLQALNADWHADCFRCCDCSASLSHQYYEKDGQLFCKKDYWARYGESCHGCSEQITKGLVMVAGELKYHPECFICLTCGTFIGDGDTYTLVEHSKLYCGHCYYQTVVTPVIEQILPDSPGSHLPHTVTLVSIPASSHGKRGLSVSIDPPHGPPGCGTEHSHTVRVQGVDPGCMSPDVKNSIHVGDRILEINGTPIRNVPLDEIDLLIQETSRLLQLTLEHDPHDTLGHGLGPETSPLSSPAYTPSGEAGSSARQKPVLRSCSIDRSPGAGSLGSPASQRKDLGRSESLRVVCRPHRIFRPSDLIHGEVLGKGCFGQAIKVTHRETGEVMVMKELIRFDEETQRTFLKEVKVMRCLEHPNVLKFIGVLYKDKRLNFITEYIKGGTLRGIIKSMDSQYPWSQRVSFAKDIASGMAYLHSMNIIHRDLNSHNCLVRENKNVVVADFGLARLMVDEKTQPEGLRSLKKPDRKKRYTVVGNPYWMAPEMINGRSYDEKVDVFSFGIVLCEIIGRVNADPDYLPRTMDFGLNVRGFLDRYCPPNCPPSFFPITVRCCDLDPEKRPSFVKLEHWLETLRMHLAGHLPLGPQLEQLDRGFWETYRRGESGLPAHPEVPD

Ki (LIMK1; Lanthascreen Eu binding assay) | Ki (LIMK2; Lanthascreen Eu binding assay) | inhibition at 1 µM (ROCK1; [3]) | inhibition at 1 µM (ROCK2; [4]) | Structure (SMILES) | inhibition at 1 µM (ROCK1; [1]) | inhibition at 1 µM (ROCK2; [2]) | also measured
– | – | 79% | 69% | Cc1c[nH]c2ncnc(C3=CCN(C(=O)Nc4ccc(Cl)c(C(F)(F)F)c4)CC3)c12 [Compound 12, N-(4-Chloro-3-(trifluoromethyl)phenyl)-4-(5-methyl-7H-pyrrolo[2,3-d]pyrimidin-4-yl)-3,6-dihydropyridine-1(2H)-carboxamide] | – | – | –
– | – | – | – | Cc1c[nH]c2ncnc(C3=CCN(C(=O)Nc4ccc5c(c4)OCO5)CC3)c12 [Compound 14, N-(Benzo[d][1,3]dioxol-5-yl)-4-(5-methyl-7H-pyrrolo[2,3-d]pyrimidin-4-yl)-3,6-dihydropyridine-1(2H)-carboxamide] | 79% | 59% | –
80.1 nM | 341 nM | – | – | Cc1c[nH]c2ncnc(C3=CCN(C(=O)Nc4ccc(Oc5ccccc5)cc4)CC3)c12 [Compound 16, 4-(5-Methyl-7H-pyrrolo[2,3-d]pyrimidin-4-yl)-N-(4-phenoxy-phenyl)-3,6-dihydropyridine-1(2H)-carboxamide] | – | – | % inhibition (ROCK1) 1 uM (ROCK1; 1 uM): 15%; % inhibition (ROCK2) 1 uM (ROCK2; 1 uM): 14%
162 nM | 193 nM | 55% | 28% | CCc1cccc(NC(=O)N2CC=C(c3ncnc4[nH]cc(C)c34)CC2)c1 [Compound 20, N-(3-Ethylphenyl)-4-(5-methyl-7H-pyrrolo[2,3-d]pyrimidin-4-yl)-3,6-dihydropyridine-1(2H)-carboxamide] | – | – | –
– | – | – | – | Cc1c[nH]c2ncnc(C3=CCN(C(=O)Nc4cccc(-n5ccnc5)c4)CC3)c12 [Compound 24, N-(3-(1H-Imidazol-1-yl)phenyl)-4-(5-methyl-7H-pyrrolo[2,3-d]pyrimidin-4-yl)-3,6-dihydropyridine-1(2H)-carboxamide] | 40% | 25% | –
278 nM | 90.7 nM | 85% | 64% | Cc1c[nH]c2ncnc(C3=CCN(C(=O)Nc4cccc(-n5cncn5)c4)CC3)c12 [Compound 26, N-(3-(1H-1,2,4-Triazol-1-yl)phenyl)-4-(5-methyl-7H-pyrrolo[2,3-d]pyrimidin-4-yl)-3,6-dihydropyridine-1(2H)-carboxamide] | – | – | –
34.5 nM | 43.6 nM | – | – | Cc1c[nH]c2ncnc(C3=CCN(C(=O)Nc4ccc(Oc5ccccc5)cc4)CC3)c12 [Compound 28, 4-(5-Methyl-7H-pyrrolo[2,3-d]pyrimidin-4-yl)-N-(4-phenoxy-phenyl)-3,6-dihydropyridine-1(2H)-carboxamide] | – | – | % inhibition (ROCK1) 1 uM (ROCK1; 1 uM): 76%; % inhibition (ROCK2) 1 uM (ROCK2; 1 uM): 35%
50.1 nM | 186 nM | 96% | 87% | Cc1c[nH]c2ncnc(C3=CCN(C(=O)Nc4cccs4)CC3)c12 [Compound 33, 4-(5-methyl-7H-pyrrolo[2,3-d]pyrimidin-4-yl)-N-(2-thienyl)-3,6-dihydro-2H-pyridine-1-carboxamide] | – | – | –
– | – | – | – | Cc1c[nH]c2ncnc(C3=CCN(C(=O)N[C@@H]4CCCc5ccccc54)CC3)c12 [Compound 35-R, 4-(5-methyl-7H-pyrrolo[2,3-d]pyrimidin-4-yl)-N-tetralin-1-yl-3,6-dihydro-2H-pyridine-1-carboxamide] | 24% | 12% | Ki (LIMK1): 851 nM; Ki (LIMK2): 2540 nM
10.6 nM | 13.4 nM | 33% | 22% | CC(=O)NCCCOc1cccc(-c2cccc(NC(=O)N3CC=C(c4ncnc5[nH]cc(C)c45)CC3)c2)c1 [Compound 40, N-(3′-(3-Acetamidopropoxy)-[1,1′-biphenyl]-3-yl)-4-(5-methyl-7H-pyrrolo[2,3-d]pyrimidin-4-yl)-5,6-dihydropyridine-1(2H)-carboxamide] | – | – | –
30.7 nM | 53.3 nM | 37% | 31% | Cc1c[nH]c2ncnc(C3=CCN(C(=O)Nc4cccc(Oc5ccc(N(C)C)cc5)c4)CC3)c12 [Compound 42, N-[3-[4-(Dimethylamino)phenoxy]phenyl]-4-(5-methyl-7H-pyrrolo[2,3-d]pyrimidin-4-yl)-3,6-dihydro-2H-pyridine-1-carboxamide] | – | – | –
90.9 nM | – | 6% | -4% | O=C(NC1CCCCC1)N1CC=C(c2ncnc3[nH]cc(C4CC4)c23)CC1 [Compound 83, N-Cyclohexyl-4-(5-cyclopropyl-7H-pyrrolo[2,3-d]pyrimidin-4-yl)-3,6-dihydropyridine-1(2H)-carboxamide] | – | – | –
6.49 nM | 19.6 nM | 7% | 2% | O=C(Nc1cccc(-c2ccncc2)c1)N1CC=C(c2ncnc3[nH]c4c(c23)CCC4)CC1 [Compound 124, N-(3-(Pyridin-4-yl)phenyl)-4-(5,6,7,8-tetrahydrocyclopenta [4,5]pyrrolo[2,3-d]pyrimidin-4-yl)-3,6-dihydropyridine-1(2H)-carboxamide] | – | – | –
– | – | – | – | CC1=CC(C)=[N+]2C1=Cc1ccc(CCC(=O)NCCCOc3cccc(-c4cccc(NC(=O)N5CC=C(c6ncnc7[nH]cc(C8CC8)c67)CC5)c4)c3)n1[B-]2(F)F [Compound 168, N-(3′-(3-(3-(5,5-Difluoro-7,9-dimethyl-5H-dipyrrolo[1,2-c:2′,1′-f][1,3,2]diazaborinin-3-yl)propanamido)propoxy)-[1,1′-biphenyl]-3-yl)-4-(5-isopropyl-7H-pyrrolo[2,3-d]pyrimidin-4-yl)-3,6-dihydropyridine-1(2H)-carboxamide] | – | – | % inhibition (ROCK1) 1 uM (ROCK1): 2%; % inhibition (ROCK2) 1 uM (ROCK2): 20%
– | – | – | – | CC1=CC(C)=[N+]2C1=Cc1ccc(CCC(=O)NCCCOc3cccc(-c4cccc(NC(=O)N5CC=C(c6ncnc7[nH]cc(C)c67)CC5)c4)c3)n1[B-]2(F)F [Compound 169, N-(3′-(3-(3-(5,5-difluoro-7,9-dimethyl-5H-dipyrrolo[1,2-c:2′,1′-f][1,3,2]diazaborinin-3-yl)propanamido)propoxy)-[1,1′-biphenyl]-3-yl)-4-(5-methyl-7H-pyrrolo [2,3-d]pyrimidin-4-yl)-3,6-dihydropyridine-1(2H)-carboxamide] | – | – | % inhibition (ROCK1) 1 uM (ROCK1): 10%

Structure (SMILES) | Ki (LIMK1; Lanthascreen Eu binding assay) | Ki (LIMK2; Lanthascreen Eu binding assay) | inhibition at 1 µM (ROCK1; [3]) | inhibition at 1 µM (ROCK2; [4]) | inhibition at 1 µM (ROCK1; [1]) | inhibition at 1 µM (ROCK2; [2]) | also measured
Cc1c[nH]c2ncnc(C3=CCN(C(=O)NC4CCCc5ccccc54)CC3)c12 (racemic) [Compound 34-rac, 4-(5-methyl-7H-pyrrolo[2,3-d]pyrimidin-4-yl)-N-tetralin-1-yl-3,6-dihydro-2H-pyridine-1-carboxamide] | 610 nM | 742 nM | – | – | 79% | 52% | –
O=C(Nc1ccccc1)N1CC=C(c2ncnc3[nH]c4c(c23)CCCC4)CC1 [Compound 120, N-Phenyl-4-(6,7,8,9-tetrahydro-5H-pyrimido[4,5-b]indol-4-yl)-3,6-dihydropyridine-1(2H)-carboxamide] | 14.9 nM | 29.6 nM | – | – | 0% | -9% | –
O=C(Nc1cccc(-c2ccccc2)c1)N1CC=C(c2ncnc3[nH]c4c(c23)CCC4)CC1 [Compound 123, N-([1,1′-Biphenyl]-3-yl)-4-(5,6,7,8-tetrahydrocyclopenta[4,5]pyrrolo[2,3-d]pyrimidin-4-yl)-3,6-dihydropyridine-1(2H)-carboxamide] | 11.5 nM | 16.2 nM | – | – | 10% | 1% | –
